Measured values as given in patent publication US11104671B2, “Insecticidal compounds” (SYNGENTA PARTICIPATIONS AG, priority 2017, dated 2021).

Assays:
Format in all cases: in vivo
Diabrotica balteata = Diabrotica balteata (corn root worm), maize sprouts sprayed, L2 larvae; details: 96 h, application rate 200 ppm, 4 days after infestation, L2 larvae, read-out: effect in at least one of the two categories (mortality or growth inhibition)
Description: Diabrotica Balteata (Corn Root Worm)
Maize sprouts placed onto an agar layer in 24-well microtiter plates were treated with aqueous test solutions prepared from 10,000 ppm DMSO stock solutions by spraying. After drying, the plates were infested with L2 larvae (6 to 10 per well). The samples were assessed for mortality and growth inhibition in comparison to untreated samples 4 days after infestation.

Euschistus heros = Euschistus heros (neotropical brown stink bug), soybean leaves sprayed, N2 nymphs; details: 120 h, application rate 200 ppm, 5 days after infestation, N2 nymphs, read-out: effect in at least one of the two categories (mortality or growth inhibition)
Description: Euschistus heros (Neotropical Brown Stink Bug)
Soybean leaves on agar in 24-well microtiter plates were sprayed with aqueous test solutions prepared from 10,000 ppm DMSO stock solutions. After drying the leaves were infested with N2 nymphs. The samples were assessed for mortality and growth inhibition in comparison to untreated samples 5 days after infestation.

Myzus persicae [1] = test: Myzus persicae (green peach aphid), intrinsic activity; details: 120 h, test rate 12 ppm, 5 days after infestation, sucrose solution, infested pea seedlings, read-out: mortality
Text: Myzus persicae (Green Peach Aphid). Intrinsic Activity
Test compounds prepared from 10,000 ppm DMSO stock solutions were applied by pipette into 24-well microtiter plates and mixed with sucrose solution. The plates were closed with a stretched Parafilm. A plastic stencil with 24 holes was placed onto the plate and infested pea seedlings were placed directly on the Parafilm. The infested plate was closed with a gel blotting paper and another plastic stencil and then turned upside down. The samples were assessed for mortality 5 days after infestation.

Myzus persicae [2] = test: Myzus persicae (green peach aphid), feeding/contact activity; details: foliar, 144 h, application rate 200 ppm, 6 days after infestation, sunflower leaf discs, mixed ages, read-out: mortality
Description: Myzus persicae (Green Peach Aphid): Feeding/Contact Activity
(§1) Sunflower leaf discs were placed onto agar in a 24-well microtiter plate and sprayed with aqueous test solutions prepared from 10,000 ppm DMSO stock solutions. After drying, the leaf discs were infested with an aphid population of mixed ages. The samples were assessed for mortality 6 days after infestation.

Plutella xylostella = Plutella xylostella (diamond back moth), artificial diet, L2 larvae; details: 120 h, application rate 200 ppm, 5 days after infestation, L2 larvae, read-out: effect in at least one of the two categories (mortality or growth inhibition)
Description: Plutella xylostella (Diamond Back Moth)
24-well microtiter plates with artificial diet were treated with aqueous test solutions prepared from 10,000 ppm DMSO stock solutions by pipetting. After drying, the plates were infested with L2 larvae (10 to 15 per well). The samples were assessed for mortality and growth inhibition in comparison to untreated samples 5 days after infestation.

Spodoptera littoralis = Spodoptera littoralis (Egyptian cotton leaf worm), cotton leaf discs, L1 larvae; details: foliar, 72 h, application rate 200 ppm, 3 days after infestation, L1 larvae, read-out: control (mortality, anti-feedant effect or growth inhibition)
Description: Spodoptera littoralis (Egyptian Cotton Leaf Worm)
Cotton leaf discs were placed onto agar in 24-well microtiter plates and sprayed with aqueous test solutions prepared from 10,000 ppm DMSO stock solutions. After drying the leaf discs were infested with five L1 larvae. The samples were assessed for mortality, anti-feeding effect, and growth inhibition in comparison to untreated samples 3 days after infestation. Control of Spodoptera littoralis by a test sample is given when at least one of the categories mortality, anti-feedant effect, and growth inhibition is higher than the untreated sample.

Tetranychus urticae = Tetranychus urticae (two-spotted spider mite), feeding/contact activity; details: foliar, 192 h, application rate 200 ppm, 8 days after infestation, bean leaf discs, read-out: mortality on mixed population (mobile stages)
Description: Tetranychus urticae (Two-Spotted Spider Mite): Feeding/Contact Activity
Bean leaf discs on agar in 24-well microtiter plates were sprayed with aqueous test solutions prepared from 10,000 ppm DMSO stock solutions. After drying the leaf discs were infested with a mite population of mixed ages. The samples were assessed for mortality on mixed population (mobile stages) 8 days after infestation.

Thrips tabaci = Thrips tabaci (onion thrips), feeding/contact activity; details: foliar, 144 h, application rate 200 ppm, 6 days after infestation, sunflower leaf discs, mixed ages, read-out: mortality
Description: Thrips tabaci (Onion thrips) Feeding/Contact Activity
as §1, with “on” for “onto”, “in” for “in a”, “plates” for “plate”, “drying” for “drying,”, “a thrips” for “an aphid”

Cc1cc(C2=NCC(c3cc(Cl)c(F)c(Cl)c3)(C(F)(F)F)C2)ccc1C(=O)NC1CON(S(C)(=O)=O)C1 (stereo not shown) [Compound A7, 4-[3-(3,5-dichloro-4-fluoro-phenyl)-3-(trifluoromethyl)-2,4-dihydropyrrol-5-yl]-2-methyl-N-(2-methylsulfonylisoxazolidin-4-yl)benzamide]
≥ 80%: percent effect (mortality or growth inhibition) at 200 ppm (Diabrotica balteata) | percent effect (mortality or growth inhibition) at 200 ppm (Euschistus heros) | mortality at 12 ppm (Myzus persicae [1]) | mortality at 200 ppm (Myzus persicae [2]) | percent effect (mortality or growth inhibition) at 200 ppm (Plutella xylostella) | percent control (mortality, anti-feedant effect or growth inhibition) at 200 ppm (Spodoptera littoralis) | mortality at 200 ppm (Tetranychus urticae) | mortality at 200 ppm (Thrips tabaci)

Cc1cc(C2=NCC(c3cc(Cl)c(Cl)c(Cl)c3)(C(F)(F)F)C2)ccc1C(=O)NC1CON(S(C)(=O)=O)C1 (stereo not shown) [Compound A8, 2-methyl-N-(2-methylsulfonylisoxazolidin-4-yl)-4-[3-(3,4,5-trichlorophenyl)-3-(trifluoromethyl)-2,4-dihydropyrrol-5-yl]benzamide]
≥ 80%: percent effect (mortality or growth inhibition) at 200 ppm (Diabrotica balteata) | percent effect (mortality or growth inhibition) at 200 ppm (Euschistus heros) | mortality at 12 ppm (Myzus persicae [1]) | mortality at 200 ppm (Myzus persicae [2]) | percent effect (mortality or growth inhibition) at 200 ppm (Plutella xylostella) | percent control (mortality, anti-feedant effect or growth inhibition) at 200 ppm (Spodoptera littoralis) | mortality at 200 ppm (Tetranychus urticae) | mortality at 200 ppm (Thrips tabaci)
